{
  "source": "patent US8940477B2",
  "about": "(priority 2007, dated 2015)",
  "molecular_target": "BoNT/A (Clostridium botulinum, UniProt P0DPI1)",
  "sequence (P0DPI1 2-448 limits assumed)": "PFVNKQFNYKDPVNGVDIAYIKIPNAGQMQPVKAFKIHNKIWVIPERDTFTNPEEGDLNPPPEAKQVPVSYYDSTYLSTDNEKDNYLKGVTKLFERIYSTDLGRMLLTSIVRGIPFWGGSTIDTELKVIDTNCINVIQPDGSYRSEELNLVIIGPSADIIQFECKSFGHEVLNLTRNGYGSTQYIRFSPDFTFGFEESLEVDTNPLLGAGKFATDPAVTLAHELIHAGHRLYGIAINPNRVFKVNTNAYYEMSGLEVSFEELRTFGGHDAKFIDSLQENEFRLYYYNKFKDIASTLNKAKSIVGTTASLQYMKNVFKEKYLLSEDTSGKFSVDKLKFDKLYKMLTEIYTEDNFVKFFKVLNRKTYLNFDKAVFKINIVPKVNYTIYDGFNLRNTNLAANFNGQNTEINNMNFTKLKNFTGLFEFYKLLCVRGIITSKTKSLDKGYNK",
  "sequence (P0DPI1 449-1296 limits assumed)": "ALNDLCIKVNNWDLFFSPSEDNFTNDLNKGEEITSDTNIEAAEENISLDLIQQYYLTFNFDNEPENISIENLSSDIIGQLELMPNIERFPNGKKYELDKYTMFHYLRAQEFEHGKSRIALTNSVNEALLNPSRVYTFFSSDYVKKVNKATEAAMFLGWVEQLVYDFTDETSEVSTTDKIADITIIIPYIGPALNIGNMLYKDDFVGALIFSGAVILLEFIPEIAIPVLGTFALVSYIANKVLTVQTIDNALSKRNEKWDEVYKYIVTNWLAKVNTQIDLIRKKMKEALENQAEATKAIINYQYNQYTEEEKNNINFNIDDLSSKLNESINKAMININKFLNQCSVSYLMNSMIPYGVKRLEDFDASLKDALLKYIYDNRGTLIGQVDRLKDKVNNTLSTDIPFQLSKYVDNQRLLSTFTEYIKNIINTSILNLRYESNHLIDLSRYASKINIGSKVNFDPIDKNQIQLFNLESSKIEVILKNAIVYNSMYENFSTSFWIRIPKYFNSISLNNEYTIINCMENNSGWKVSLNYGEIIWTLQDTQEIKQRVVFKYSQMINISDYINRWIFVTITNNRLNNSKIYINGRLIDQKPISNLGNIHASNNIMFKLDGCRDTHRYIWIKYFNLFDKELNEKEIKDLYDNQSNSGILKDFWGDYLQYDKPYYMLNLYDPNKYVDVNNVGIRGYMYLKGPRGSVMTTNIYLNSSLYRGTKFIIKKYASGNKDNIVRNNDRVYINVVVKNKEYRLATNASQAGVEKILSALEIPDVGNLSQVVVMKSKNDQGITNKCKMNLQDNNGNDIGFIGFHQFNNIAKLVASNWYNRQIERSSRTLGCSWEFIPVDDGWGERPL",
  "assay_type": "cell-based",
  "note": "Entries after “also recorded” stand apart in the source; their conditions may differ.",
  "data": [
    {"molecule": "CC(=O)O[C@@H]1C[C@H](O)[C@@]23CO[C@@H](O)[C@]1(C)[C@@H]2C[C@@H](O)[C@]1(C)[C@@H]3C(=O)[C@H](OC(C)=O)[C@@]2(C)[C@H](c3ccoc3)C[C@H]3O[C@]321", "note": "[Toosendanin]", "values": [
      {"measurement": "SNAP25 cleavage in presence of Toosendanin", "value": "only full-length SNAP25 was detected; also recorded: protects against BoNT/A induced SNAP25 cleavage"}
    ]}
  ]
}
